Drawing on ChEMBL document CHEMBL5154680, “Seco and Nor-seco Isodhilarane-Type Meroterpenoids from Penicillium purpurogenum and the Configuration Revisions of Related Compounds” (J Nat Prod, 2022), this text covers Activity and IC50 for six compounds.

The IC50 is the concentration at which inhibition is half-maximal.

Common to all, as to format: functional, cell-based
Assay [1] relates to HepG2. The assay can be described thus: Hepatoprotective activity against APAP-induced toxicity in human HepG2 cells assessed as cell survival rate at 10 uM incubated for 48 hrs by MTT assay. Background: Formazan colour is commonly taken as a measure of viable cells.
A further assay has as its system A549. The assay can be described thus: Cytotoxicity against human A549 cells assessed as reduction in cell viability incubated for 24 hrs by MTT assay. Particulars: A549, 24 h.
For assay [2], the system named is HepG2. Briefly: Cytotoxicity against human HepG2 cells assessed as reduction in cell viability incubated for 24 hrs by MTT assay. The note with it: HepG2, 24 h.

The source made the active and inactive calls. No cut-off for these calls is given here.

As to `COC(=O)[C@]12C(=O)[C@@H](C)O[C@@H]3OC(=O)[C@](C)(C[C@H]4[C@]5(CO5)C5=CC(=O)OC(C)(C)C5=CC[C@@]41C)[C@@H]32`, the outcome in the assay with HepG2 [1] was Active.

With `C[C@H]1O[C@@H]2OC(=O)[C@]3(C)C[C@@H]4[C@@]5(C)C(=C1O[C@H]5C=C1C(=CC(=O)OC1(C)C)[C@@]41CO1)[C@]23O`, in the assay on HepG2 [1], the result was Active. The same measure, in the same setting: as for `COC(=O)[C@]12C(=O)[C@@H](C)O[C@@H]3OC(=O)[C@](C)(C[C@H]4[C@]5(CO5)C5=CC(=O)OC(C)(C)[C@]56O[C@@H]6C[C@@]41C)[C@@H]32`, the entry is “Active”; as for `C[C@H]1O[C@@H]2OC(=O)[C@]3(C)C[C@@H]4[C@](C)(C(=O)C=C5C(=CC(=O)OC5(C)C)[C@@]45CO5)[C@H](C1=O)[C@H]23`, “Active”. On the same count and under the same terms, as for `COC(=O)[C@]12C(=O)[C@@H](C)O[C@@H]3OC(=O)[C@](C)(C[C@@H]4[C@]1(C)CC=C1C(=CC(=O)OC1(C)C)[C@@]4(C)O)[C@@H]32`, the entry is “Active”.

On to `C[C@H]1O[C@@H]2OC(=O)[C@]3(C)C[C@@H]4[C@](C)(C(=O)C=C5C(=CC(=O)OC5(C)C)[C@@]45CO5)[C@H](C1=O)[C@]23O`, for which the results for the IC50 with A549 and in the assay with HepG2 [2] were 6.8 µM and 5.58 µM, respectively.
